Source: patent US11440923B2, “Substituted macrocyclic indole derivatives” (Bayer Aktiengesellschaft, priority 2017, dated 2022)
Counter-ions that a name gives are not always drawn. Like-named read-outs stand apart in the source and are kept apart here.

Legend:
Format in all cases: cell-based
HMC-1-8 cells = test: Antiproliferation assay HMC-1-8 (Assay 7)
Protocol: (§1) Assessment of the Anti-Proliferative Effect of Compounds in Different Cell Lines
(§2) The impact of compounds on the proliferation of different cell lines was assessed using the CellTiter-Glo® Luminescent Cell Viability reagent from Promega (G7573).
(§3) In parallel, cells were plated in a reference (day 0) plate for time zero determination. Cells were incubated in a humidified incubator at 37° C. overnight.
(§4) Rim wells were excluded. The cells were incubated for 72 h hours in a humidified incubator at 37° C. The day 0 plate was measured by adding 30 μL/well of CTG solution (CellTiter-Glo® Luminescent Cell Viability reagent, Promega G7573) to time zero wells in the reference plate followed by a 10 minutes incubation and luminescence reading at 0.1 ms. using the PHERAstar FS microplate reader (BMG Labtech).
(§5) After 72 h incubation, the treated plates were measured in the same way as the day 0 plate mentioned above. The Bella DRC Master Sheet was used to calculate IC50s, with CI=day 0 values and C0=DMSO control values.

SUDHL5 cells [1] = test: Induction of caspase-3/7 activity in SUDHL5 cells (Assay 4)
Protocol: (§6) Induction of Caspase-3/7 Activity Upon Treatment of Cells with Selected Compounds
(§7) The BH3-domain of MCL-1 sequesters pro-apoptotic proteins, thereby inhibiting apoptosis. In contrast, MCL-1 inhibitors are expected to antagonize this effect leading to an increase in apoptosis, which can be determined by measuring the activity of caspase-3/7.
(§8) The activity of caspase-3/7 was determined in DLBCL (Diffuse large B-cell lymphoma) cell lines (SUDHL5 and SUDHL10) upon treatment with different compounds, using the Caspase-Glo® 3/7 reagent from Promega (G8092).
(§9) As a control, medium without cells was also added to the plate. Cells were incubated in a humidified incubator at 37° C. overnight.
(§10) Rim wells were excluded. The cells were incubated for 3 h hours in a humidified incubator at 37° C. After this incubation, 30 μL of Caspase-Glo® 3/7 reagent (Promega G8092) was added to each well using the Multidrop Combi Reagent Dispenser, followed by 1 h incubation at 37° C. Finally, luminescence was read at 0.1 ms, with a gain of 3000 using the PHERAstar FS microplate reader (BMG Labtech).
(§11) For the evaluation of the results, the background measured with “medium-only” was subtracted from all other values. Then, the values were normalized to DMSO-only treated cells (every value was divided by the mean of the DMSO control).

AMO-1 cells = test: Antiproliferation assay AMO-1 (Assay 7)
Protocol: as §1, §2, §3, §4, §5

SUDHL10 cells [2] = test: Induction of cytotoxicity in SUDHL10 cells (Assay 6); details: 5 h, CellTiter-Glo, read-out: Cytotox SUDHL10 IC50 (median)
Protocol: (§12) Assay 6 Induction of Cytotoxicity Upon Treatment of Cells with Selected Compounds
(§13) In principle, compounds that induce apoptosis will concomitantly induce cell cytotoxicity. Therefore, cytotoxicity assays were run in parallel in SUDHL5 and SUDHL10 cells.
(§14) As a control, medium without cells was also added to the plate. Cells were incubated in a humidified incubator at 37° C. overnight. […] Rim wells were excluded. The cells were incubated for 5 h hours in a humidified incubator at 37° C. After this incubation, 30 μL of CellTiter-Glo® Luminescent Cell Viability reagent (Promega, G7573) was added to each well using the Multidrop Combi Reagent Dispenser, followed by 15 min incubation on a shaker at room temperature. Finally, luminescence was read at 0.1 ms, with a gain of 3000 using the PHERAstar FS microplate reader (BMG Labtech).

SUDHL5 cells [3] = test: Antiproliferation assay SUDHL5 (Assay 7)
Protocol: as §1, §2, §3, §4, §5

SUDHL10 cells [4] = test: Induction of caspase-3/7 activity in SUDHL10 cells (Assay 4)
Protocol: as §6, §7, §8, §9, §10, §11

SUDHL5 cells [5] = test: Induction of cytotoxicity in SUDHL5 cells (Assay 6); details: 5 h, CellTiter-Glo, read-out: Cytotox SUDHL5 IC50 (median)
Protocol: as §12, §13, §14

[6] = 72 h, CellTiter-Glo; read-out: Antiproli HMC-1-8 IC50 median
[7] = caspase-3/7 induction, 3 h; read-out: Caspase SUDHL5 EC50 (median)
[8] = 72 h, CellTiter-Glo; read-out: Antiproli AMO-1 IC50 median
[9] = 72 h, CellTiter-Glo; read-out: Antiproli SUDHL5 IC50 (median)
[10] = caspase-3/7 induction, 3 h; read-out: Caspase SUDHL10 EC50 (median)
[11] = 72 h, CellTiter-Glo, read-out: Antiproli HMC-1-8 IC50 median

SMILES	IC50 (SUDHL10 cells [2])	IC50 (HMC-1-8 cells; [6])	EC50 (SUDHL5 cells [1]; [7])	IC50 (AMO-1 cells; [8])	IC50 (SUDHL5 cells [5])	IC50 (SUDHL5 cells [3]; [9])	EC50 (SUDHL10 cells [4]; [10])	other results
CCc1c2c(nn1C)C(CCN1CCN(C)CC1)OCCCCn1c(C(=O)O)c(CCCOc3cccc4cc(F)ccc34)c3ccc(Cl)c-2c31 (single isomer, unassigned; stereoisomer 2) [Example 70, (+)-4-chloro-3-ethyl-7-{3-[(6-fluoronaphthalen-1-yl)oxy]propyl}-2-methyl-15-[2-(4-methylpiperazin-1-yl)ethyl]-2,10,11,12,13,15-hexahydropyrazolo[4′,3′:9,10][1,6]oxazacycloundecino[8,7,6-hi]indole-8-carboxylic Acid—N-ethylethanamine Salt (Stereoisomer 2)]	20 µM							IC50 (HMC-1-8 cells; read-out: Antiproli HMC-1-8 IC50 median; 72 h, CellTiter-Glo): 16.8 µM; EC50 (SUDHL5 cells [1]; read-out: Caspase SUDHL5 EC50 (median); caspase-3/7 induction, 3 h): 13000 nM; IC50 (AMO-1 cells; read-out: Antiproli AMO-1 IC50 median; 72 h, CellTiter-Glo): 12500 nM; IC50 (SUDHL5 cells [3]; read-out: Antiproli SUDHL5 IC50 (median); 72 h, CellTiter-Glo): 5000 nM; EC50 (SUDHL10 cells [4]; read-out: Caspase SUDHL10 EC50 (median); caspase-3/7 induction, 3 h): 14000 nM
CCc1c2c(nn1C)C(CCN(C)C)OCCCCn1c(C(=O)O)c(CCCOc3cccc4cc(F)ccc34)c3ccc(Cl)c-2c31 (single isomer, unassigned) [Example 84, 4-chloro-15-[2-(dimethylamino)ethyl]-3-ethyl-7-{3-[(6-fluoronaphthalen-1-yl)oxy]propyl}-2-methyl-2,10,11,12,13,15-hexahydropyrazolo[4′,3′:9,10][1,6]oxazacycloundecino[8,7,6-hi]indole-8-carboxylic Acid]	4.4 µM	> 33 µM	1800 nM	9560 nM	1700 nM	3100 nM	5400 nM	
CCc1c2c(nn1C)C(CCN(C)C)OCCCCn1c(C(=O)O)c(CCCOc3cccc4cc(F)ccc34)c3ccc(Cl)c-2c31 (single isomer, unassigned) [Example 85, 4-chloro-15-[2-(dimethylamino)ethyl]-3-ethyl-7-{3-[(6-fluoronaphthalen-1-yl)oxy]propyl}-2-methyl-2,10,11,12,13,15-hexahydropyrazolo[4′,3′:9,10][1,6]oxazacycloundecino[8,7,6-hi]indole-8-carboxylic Acid]	2 µM	> 33 µM	950 nM	5170 nM	870 nM	910 nM	1600 nM	
CCc1c2c(nn1C)C(CCN1CCOCC1)OCC(F)(F)CCn1c(C(=O)O)c(CCCOc3cccc4cc(F)ccc34)c3ccc(Cl)c-2c31 (single isomer, unassigned; (+)) [Example 87, (+)-4-chloro-3-ethyl-12,12-difluoro-7-{3-[(6-fluoronaphthalen-1-yl)oxy]propyl}-2-methyl-15-[2-(morpholin-4-yl)ethyl]-2,10,11,12,13,15-hexahydropyrazolo[4′,3′:9,10][1,6]oxazacycloundecino[8,7,6-hi]indole-8-carboxylic Acid]		1.5 µM	58 nM	63.9 nM	61 nM	68 nM	84 nM	
CCc1c2c(nn1C)C(CCN1CCOCC1)OCC(F)(F)CCn1c(C(=O)O)c(CCCOc3cccc4cc(F)ccc34)c3ccc(Cl)c-2c31 (stereo not drawn) [Example 86, 4-chloro-3-ethyl-12,12-difluoro-7-{3-[(6-fluoronaphthalen-1-yl)oxy]propyl}-2-methyl-15-[2-(morpholin-4-yl)ethyl]-2,10,11,12,13,15-hexahydropyrazolo[4′,3′:9,10][1,6]oxazacycloundecino[8,7,6-hi]indole-8-carboxylic Acid]		1.59 µM	100 nM	193 nM	150 nM	200 nM	140 nM	
CCc1c2c(nn1C)C1CCCCN1CCCCn1c(C(=O)O)c(CCCOc3cccc4ccccc34)c3ccc(Cl)c-2c31 (racemic) [Example 103, (rac)-18-chloro-1-ethyl-2-methyl-15-[3-(1-naphthyloxy)propyl]-2,3b,4,5,6,7,9,10,11,12-decahydropyrazolo[3′,4′:8,9]pyrido[1′,2′:6,7][1,6]diazacycloundecino[10,11,1-hi]indole-14-carboxylic Acid]								IC50 (HMC-1-8 cells; [11]): 19.8 µM; EC50 (SUDHL5 cells [1]; Homo sapiens, SU-DHL-5, 3 h, caspase-3/7 induction, 3 h; read-out: Caspase SUDHL5 EC50 (median)): 1400 nM; IC50 (AMO-1 cells; Homo sapiens, AMO1, 72 h, 72 h, CellTiter-Glo; read-out: Antiproli AMO-1 IC50 median): 1950 nM; IC50 (SUDHL5 cells [5]; Homo sapiens, SU-DHL-5, 5 h): 1100 nM; IC50 (SUDHL10 cells [2]; Homo sapiens, SU-DHL10, 5 h): 1.7 µM; IC50 (SUDHL5 cells [3]; Homo sapiens, SU-DHL-5, 72 h, 72 h, CellTiter-Glo; read-out: Antiproli SUDHL5 IC50 (median)): 2000 nM; EC50 (SUDHL10 cells [4]; Homo sapiens, SU-DHL10, 3 h, caspase-3/7 induction, 3 h; read-out: Caspase SUDHL10 EC50 (median)): 2200 nM
CCc1c2c(nn1C)C(CCN1CCOCC1)OCC(F)(F)CCn1c(C(=O)O)c(CCCOc3cccc4cc(F)ccc34)c3ccc(Cl)c-2c31 (single isomer, unassigned; (-)) [Example 91, (−)-4-chloro-3-ethyl-12,12-difluoro-7-{3-[(6-fluoronaphthalen-1-yl)oxy]propyl}-2-methyl-15-[2-(morpholin-4-yl)ethyl]-2,10,11,12,13,15-hexahydropyrazolo[4′,3′:9,10][1,6]oxazacycloundecino[8,7,6-hi]indole-8-carboxylic Acid]		6.1 µM	660 nM	729 nM	790 nM	1000 nM	890 nM	
CCc1c2c(nn1C)C(CCN1CCOCC1)N(C)CCCCn1c(C(=O)O)c(CCCOc3cccc4cc(F)ccc34)c3ccc(Cl)c-2c31 (single isomer, unassigned) [Example 95, 4-chloro-3-ethyl-7-{3-[(6-fluoronaphthalen-1-yl)oxy]propyl}-2,14-dimethyl-15-[2-(morpholin-4-yl)ethyl]-10,11,12,13,14,15-hexahydro-2H-pyrazolo[3′,4′:8,9][1,6]diazacycloundecino[10,11,1-hi]indole-8-carboxylic Acid]		8.22 µM	1500 nM	4300 nM	2200 nM	2300 nM	3500 nM	
CCc1c2c(nn1C)C(CCN1CCOCC1)N(C)CCCCn1c(C(=O)O)c(CCCOc3cccc4cc(F)ccc34)c3ccc(Cl)c-2c31 (racemic) [Example 93, (rac)-4-chloro-3-ethyl-7-{3-[(6-fluoro-1-naphthyl)oxy]propyl}-2,14-dimethyl-(15-rac)-[2-(morpholin-4-yl)ethyl]-10,11,12,13,14,15-hexahydro-2H-pyrazolo[3′,4′:8,9][1,6]diazacycloundecino[10,11,1-hi]indole-8-carboxylic Acid]		0.558 µM	20 nM	58.9 nM	27 nM	20 nM	23 nM	
CCc1c2c(nn1C)C(CCN1CCOCC1)N(C)CCCCn1c(C(=O)O)c(CCCOc3cccc4ccccc34)c3ccc(Cl)c-2c31 (racemic) [Example 99, (rac)-4-chloro-3-ethyl-2,14-dimethyl-(15-rac)-[2-(morpholin-4-yl)ethyl]-7-{3-[(naphthalen-1-yl)oxy]propyl}-10,11,12,13,14,15-hexahydro-2H-pyrazolo[3′,4′:8,9][1,6]diazacycloundecino[10,11,1-hi]indole-8-carboxylic]			76 nM	86.3 nM	100 nM	71 nM	59 nM	IC50 (HMC-1-8 cells; [11]): 1.86 µM
